Among the test systems are LOX IMVI; SF-295; DU-145; SK-MEL-5; NCI-H460; UACC-62; SF-539; NCI-H522; HT-29; OVCAR-5; NCI-H226; CAKI-1; IGROV-1; HCT-116; SNB-19; MDA-N; M14; KM12; OVCAR-4; A498.
What all share (assay): NCI tumour cell line growth inhibition, 48 h

Results on eleven compounds are retold here after ChEMBL document CHEMBL1201862, “PubChem BioAssay data set” (2004).

SMILES strings stand for the structures.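 Following 48 hours of exposure in 96-well plates, responses at five concentrations were used to interpolate endpoints linearly. GI50 marks 50% less growth.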 Active and inactive are the calls of the source. Rule as the data show it: active = GI50 up to about 1.1 µM and inactive = higher. Some results are limits rather than exact numbers.

For `NS(=O)(=O)c1ccc(NNC(=O)c2cccc3c(=O)c4ccccc4[nH]c23)cc1`, the GI50 with LOX IMVI is 30.1 µM (inactive); in the assay on SF-295 it was 91 µM (inactive); in the assay with DU-145 it was > 100 µM (inactive); with SK-MEL-5, 34 µM (inactive); in the assay on NCI-H460, 87.7 µM (inactive); in the assay with UACC-62, 88.5 µM (inactive). Moreover, the GI50 in the assay on SF-539 was > 100 µM (inactive); in the assay with NCI-H522, 41.4 µM (inactive); in the assay with HT-29 it was 66.8 µM (inactive); with OVCAR-5, > 100 µM (inactive); with NCI-H226, > 100 µM (inactive); in the assay with CAKI-1, > 100 µM (inactive). Also, the GI50 is 58.5 µM (inactive) with IGROV-1; 52.1 µM (inactive) with HCT-116; > 100 µM (inactive) with SNB-19; > 100 µM (inactive) with MDA-N; > 100 µM (inactive) in the assay on M14; 42.1 µM (inactive) with KM12. Besides, the GI50 in the assay on OVCAR-4 is 61.8 µM (inactive).
As for `CCC(O)CC1OC2(CCC1C)CC1OC(=O)/C=C\C(C)(O)C(O)C(C)C(O)C(OC3CC(OC)C(O)C(C)O3)C(O)C(C)(O)CCC/C=C/C3CC(C)COC3(O)CC(O2)C1C` (stereo not drawn), the GI50 in the assay with LOX IMVI was 11.8 µM (inactive); in the assay on SF-295 it was < 0.016 µM (active); in the assay on A498, 3.82 µM (inactive); in the assay with DU-145, 2.67 µM (inactive); in the assay with SK-MEL-5, < 0.01 µM (active); in the assay with NCI-H460, 6.62 µM (inactive). In addition, the GI50 in the assay on UACC-62 is 9.04 µM (inactive); in the assay with SF-539 it was 17.3 µM (inactive); with HT-29, 12 µM (inactive); with OVCAR-5, 6.18 µM (inactive); in the assay with NCI-H226, 0.0904 µM (active); in the assay on CAKI-1, 1.24 µM (inactive). In addition, the GI50 in the assay on IGROV-1 is 18.3 µM (inactive); with HCT-116, 5.08 µM (inactive); in the assay with SNB-19, 0.0743 µM (active); in the assay with MDA-N, 2.05 µM (inactive); in the assay on M14 it was 6.97 µM (inactive); in the assay on KM12, 2.43 µM (inactive).
`COc1cc(-c2coc3c(OC)c(OC4OC(CO)C(O)C(O)C4O)c(OC)cc3c2=O)cc(OC)c1C` (stereo not drawn): the GI50 with LOX IMVI was 3.37 µM (inactive); with SF-295, 11.7 µM (inactive); in the assay with DU-145 it was 8.41 µM (inactive); with SK-MEL-5, 12.1 µM (inactive); in the assay on NCI-H460, 8.75 µM (inactive); in the assay on UACC-62 it was 4.42 µM (inactive). Besides, the GI50 in the assay on SF-539 is 3.69 µM (inactive); in the assay on NCI-H522 it was 3.36 µM (inactive); in the assay with HT-29, 7.03 µM (inactive); in the assay on OVCAR-5, 14.2 µM (inactive); in the assay on NCI-H226, 25.7 µM (inactive); in the assay with CAKI-1, 14.7 µM (inactive). The GI50 in the assay with IGROV-1 is 4.65 µM (inactive); in the assay on HCT-116 it was 1.69 µM (inactive); in the assay on SNB-19 it was 6.81 µM (inactive); in the assay on MDA-N it was 2.21 µM (inactive); in the assay with M14, 4.45 µM (inactive); in the assay on KM12, 4.79 µM (inactive). In addition, the GI50 with OVCAR-4 was 13.1 µM (inactive).
Regarding `Cc1ccc(C(=O)N/N=C(\N=N\c2ccccc2C(=O)O)c2ccc(N(C)C)cc2)cc1`, the GI50 was > 100 µM (inactive) in the assay on LOX IMVI; 41.6 µM (inactive) in the assay with SF-295; > 10 µM (inactive) in the assay on DU-145; > 100 µM (inactive) in the assay on SK-MEL-5; 72.6 µM (inactive) in the assay on NCI-H460; > 100 µM (inactive) with SF-539. In addition, the GI50 is 46.3 µM (inactive) with NCI-H522; > 100 µM (inactive) in the assay on HT-29; > 100 µM (inactive) in the assay with OVCAR-5; > 100 µM (inactive) in the assay on NCI-H226; > 100 µM (inactive) in the assay with CAKI-1; > 100 µM (inactive) in the assay with IGROV-1. The GI50 is > 100 µM (inactive) in the assay with HCT-116; 55.3 µM (inactive) in the assay on SNB-19; 19 µM (inactive) in the assay with MDA-N; 64.6 µM (inactive) in the assay with M14; 42.9 µM (inactive) in the assay with KM12; 64.7 µM (inactive) with OVCAR-4.
As to `COc1ccccc1/N=C1\SCCN1C(=S)Nc1ccc(S(=O)(=O)/N=C/N(C)C)cc1`, the GI50 in the assay with LOX IMVI is 29.9 µM (inactive); in the assay on SF-295, > 100 µM (inactive); with A498 it was > 100 µM (inactive); with DU-145 it was 29.6 µM (inactive); in the assay on SK-MEL-5 it was 15.9 µM (inactive); with NCI-H460, > 100 µM (inactive). For the same compound, the GI50 in the assay on UACC-62 was 25.7 µM (inactive); with SF-539, 21.9 µM (inactive); in the assay with OVCAR-5, 87.5 µM (inactive); with NCI-H226, > 100 µM (inactive); with CAKI-1, 33.7 µM (inactive); with HCT-116 it was 41.7 µM (inactive). The GI50 in the assay with SNB-19 is > 100 µM (inactive); in the assay on MDA-N it was 26.5 µM (inactive); with M14, 51.5 µM (inactive); in the assay on KM12, > 100 µM (inactive); in the assay on OVCAR-4, 43.2 µM (inactive).
Turning to `CC(C1CCCC1=O)C1CCCC1=O` (stereo not drawn), the GI50 with LOX IMVI, in the assay on SF-295, in the assay with DU-145, in the assay on SK-MEL-5, with NCI-H460 and in the assay with UACC-62 was > 100 µM (inactive) each time. Also, the GI50 in the assay with SF-539, with NCI-H522, in the assay on HT-29, in the assay on OVCAR-5, with NCI-H226 and in the assay on CAKI-1 was > 100 µM (inactive) in each case. Moreover, the GI50 with IGROV-1, in the assay on HCT-116, in the assay on SNB-19, with MDA-N, with M14 and with KM12 was > 100 µM (inactive) throughout. The GI50 with OVCAR-4 was > 100 µM (inactive).
For the compound `Fc1cc(-c2cc(-c3ccccc3)n[nH]2)c(Cl)cc1Cl`, the GI50 is 99.1 µM (inactive) in the assay with LOX IMVI; > 100 µM (inactive) in the assay on SF-295; > 100 µM (inactive) with DU-145; > 100 µM (inactive) in the assay with SK-MEL-5; > 100 µM (inactive) with NCI-H460; 23 µM (inactive) in the assay on SF-539. Further, the GI50 in the assay on NCI-H522 is > 100 µM (inactive); with HT-29, > 100 µM (inactive); in the assay on OVCAR-5, > 100 µM (inactive); in the assay with NCI-H226, 50.7 µM (inactive); in the assay with CAKI-1, > 100 µM (inactive); in the assay with IGROV-1, 1.77 µM (inactive). In addition, the GI50 in the assay with HCT-116, in the assay with SNB-19, in the assay with MDA-N, with M14, in the assay on KM12 and in the assay on OVCAR-4 was > 100 µM (inactive) throughout.
As to `O=C1OC(C2Cc3ccccc3C2=O)c2ccccc21` (stereo not drawn), the GI50 was 99.1 µM (inactive) in the assay with LOX IMVI; > 100 µM (inactive) in the assay with SF-295; > 100 µM (inactive) in the assay with DU-145; > 100 µM (inactive) with SK-MEL-5; > 100 µM (inactive) in the assay with NCI-H460; > 100 µM (inactive) in the assay with UACC-62. The GI50 with SF-539 is > 100 µM (inactive); with NCI-H522, > 100 µM (inactive); with HT-29, 26.1 µM (inactive); in the assay on OVCAR-5, > 100 µM (inactive); with NCI-H226, > 100 µM (inactive); in the assay with CAKI-1, > 100 µM (inactive). For the same compound, the GI50 in the assay on IGROV-1, in the assay with HCT-116, in the assay with SNB-19, with MDA-N, with M14 and in the assay with KM12 was > 100 µM (inactive) each time. The GI50 with OVCAR-4 is > 100 µM (inactive).
Turning to `O=C1NCC2(CCN(Cc3ccccc3)CC2)N1`, the GI50 in the assay on LOX IMVI, in the assay on SF-295, in the assay on DU-145, with SK-MEL-5, in the assay on NCI-H460 and with UACC-62 was > 100 µM (inactive) in each case. The GI50 in the assay with SF-539, in the assay on NCI-H522, in the assay with HT-29, in the assay with OVCAR-5, in the assay on NCI-H226 and with CAKI-1 was > 100 µM (inactive) throughout. In addition, the GI50 in the assay on IGROV-1, in the assay with HCT-116, in the assay with SNB-19, with MDA-N, with M14 and in the assay with KM12 was > 100 µM (inactive) throughout. The GI50 with OVCAR-4 was > 100 µM (inactive).
`O=C(c1cccs1)N(C(=O)N1CCC(c2ccccc2)CC1)c1ccccc1`: the GI50 with LOX IMVI was 41.5 µM (inactive); in the assay on SF-295, 42.7 µM (inactive); with A498, 51.4 µM (inactive); with DU-145 it was > 100 µM (inactive); in the assay on SK-MEL-5 it was 16.8 µM (inactive); in the assay on NCI-H460, 43.7 µM (inactive). Besides, the GI50 in the assay on UACC-62 is 50.6 µM (inactive); in the assay on SF-539 it was > 100 µM (inactive); in the assay with HT-29, 25.4 µM (inactive); with OVCAR-5, > 100 µM (inactive); in the assay with NCI-H226, 34 µM (inactive); in the assay on CAKI-1, > 100 µM (inactive). In addition, the GI50 was 14.7 µM (inactive) with IGROV-1; 42.5 µM (inactive) in the assay with HCT-116; > 100 µM (inactive) in the assay on SNB-19; 43.8 µM (inactive) in the assay with MDA-N; 40.6 µM (inactive) with M14; 14.4 µM (inactive) with KM12.
In the case of `C=C(C)C1CC(=O)C(C)=C(O)C1` (stereo not drawn), the GI50 in the assay on LOX IMVI, with SF-295, with DU-145, in the assay on SK-MEL-5, in the assay with NCI-H460 and in the assay with UACC-62 was > 100 µM (inactive) in each case. Further, the GI50 in the assay on SF-539, in the assay on NCI-H522, in the assay with HT-29, with OVCAR-5, in the assay with NCI-H226 and in the assay with CAKI-1 was > 100 µM (inactive) throughout. For the same compound, the GI50 in the assay with IGROV-1, in the assay on HCT-116, in the assay on SNB-19, in the assay with MDA-N, with M14 and with KM12 was > 100 µM (inactive) throughout. In addition, the GI50 in the assay with OVCAR-4 was > 100 µM (inactive).
